Patent US8927717B1, “Thiochromeno[2,3-c]quinolin-12-one derivatives, preparation method and application thereof” (National Defense Medical Center, priority 2014, dated 2015)
Where two headings read alike, the source gives them in different places.

Assays:
PC-3 cell line = assay: MTT assay for cell cytotoxicity; format: cell-based, human; conditions: PC-3 cells, 72 h, at least three independent experiments, read-out: MTT assay (IC50 ± SD) PC-3
Experimental: (§1) All of synthesis compounds were evaluated cell cytotoxicity by using MTT colorimetric assay on PC-3 and DU-145 cell lines. DU-145 and PC-3 are human hormone-refractory (androgen-independent) prostatic cancer cell lines from American Type Culture Collection (HTB-81™, ATCC, Rockville, Md.)^125 and Bioresource Collection and Research Center (60122, BCRC, Taiwan)^126, respectively. Two of the “classical” cell lines were cultivated in RPMI-1640 medium supplemented with 5% fetal bovine serum (v/v), 100 U/mL penicillin, and […] streptomycin. Approximately 2×10^3 cells were seeded into each well of a 96-well plate and incubated in 5% CO2 at 37° C. for 24 h. To evaluate the in vitro cytotoxicity, all the synthetic compounds were dissolved in DMSO, prepared immediately before the experiments and diluted into the complete medium before being added to each well of a 96-well plate. Each compound was then added to the culture medium for designated various concentrations (0.15, 0.5, 1.5, 5, 15 μM). After 72 h, an amount of 100 μL of MTT (1 mg/mL) was added to each well, and the samples were incubated at 37° C. for 4 h. After removing the MTT solution, 100 μL of DMSO was added to each well and incubated at 37° C. for another 20 mins. The absorbency at 560 nm was measured by using an ELISA reader.
(§2) Results are expressed as mean values of at least three independent experiments. The IC50 values of testing compounds were described in Table 1.

DU-145 cell line = assay: MTT assay for cell cytotoxicity; format: cell-based, human; conditions: DU-145 cells; 72 h; at least three independent experiments; read-out: MTT assay (IC50 ± SD) DU-145
Experimental: as §1, §2

[1] = target: T1, TOP II (Topoisomerase II) (Homo sapiens, UniProt P11388); assay: TOP II-catalyzed relaxation of plasmid DNA assay; format: biochemical
T1 construct: purchased TopoGEN TG-2000H-1
T1 sequence (P11388 whole entry): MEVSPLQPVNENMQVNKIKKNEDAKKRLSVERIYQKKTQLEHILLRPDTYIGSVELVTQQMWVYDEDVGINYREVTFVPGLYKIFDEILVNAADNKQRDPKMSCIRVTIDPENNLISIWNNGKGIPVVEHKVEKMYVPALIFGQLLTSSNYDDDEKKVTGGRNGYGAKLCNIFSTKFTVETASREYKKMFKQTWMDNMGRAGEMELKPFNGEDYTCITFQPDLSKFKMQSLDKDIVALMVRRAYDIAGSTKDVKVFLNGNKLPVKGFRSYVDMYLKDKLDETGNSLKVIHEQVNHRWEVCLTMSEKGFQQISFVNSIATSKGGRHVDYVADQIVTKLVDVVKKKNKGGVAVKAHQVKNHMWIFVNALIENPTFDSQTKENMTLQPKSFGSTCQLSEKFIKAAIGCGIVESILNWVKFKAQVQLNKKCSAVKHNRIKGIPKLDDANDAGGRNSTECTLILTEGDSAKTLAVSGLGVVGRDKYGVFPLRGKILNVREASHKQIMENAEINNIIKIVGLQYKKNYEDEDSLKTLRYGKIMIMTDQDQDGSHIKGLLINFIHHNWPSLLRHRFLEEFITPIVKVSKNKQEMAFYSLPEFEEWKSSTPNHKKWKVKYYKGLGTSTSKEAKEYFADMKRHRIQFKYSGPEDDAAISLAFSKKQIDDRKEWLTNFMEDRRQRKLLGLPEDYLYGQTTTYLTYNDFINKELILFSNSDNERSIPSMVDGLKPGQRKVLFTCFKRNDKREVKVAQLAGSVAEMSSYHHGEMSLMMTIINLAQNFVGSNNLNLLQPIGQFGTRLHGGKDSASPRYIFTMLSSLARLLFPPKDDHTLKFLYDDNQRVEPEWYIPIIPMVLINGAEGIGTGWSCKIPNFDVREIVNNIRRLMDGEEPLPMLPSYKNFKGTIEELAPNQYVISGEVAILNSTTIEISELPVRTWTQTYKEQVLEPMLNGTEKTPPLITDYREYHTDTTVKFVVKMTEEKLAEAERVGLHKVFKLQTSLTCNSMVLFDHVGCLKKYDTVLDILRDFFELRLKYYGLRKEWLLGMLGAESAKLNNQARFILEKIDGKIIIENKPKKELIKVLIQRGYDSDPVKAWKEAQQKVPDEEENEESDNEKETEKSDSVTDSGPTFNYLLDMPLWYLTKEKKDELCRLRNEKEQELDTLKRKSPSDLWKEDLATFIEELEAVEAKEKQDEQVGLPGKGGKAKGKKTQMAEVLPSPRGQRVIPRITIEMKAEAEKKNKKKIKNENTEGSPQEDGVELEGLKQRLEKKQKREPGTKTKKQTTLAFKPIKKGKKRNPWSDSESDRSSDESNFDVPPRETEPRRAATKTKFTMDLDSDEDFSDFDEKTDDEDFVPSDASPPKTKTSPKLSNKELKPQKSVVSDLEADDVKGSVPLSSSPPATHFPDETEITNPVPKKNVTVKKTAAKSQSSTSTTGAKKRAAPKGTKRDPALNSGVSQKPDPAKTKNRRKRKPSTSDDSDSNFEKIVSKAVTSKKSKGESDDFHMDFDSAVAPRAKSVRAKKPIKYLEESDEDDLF
Experimental: We also performed TOP II-catalyzed relaxation of plasmid DNA assays (FIG. 5-7) to evaluate if compounds could inhibit TOP II. […] The IC50 value of compounds 7, N7, N8, N14, N15, N18, and N19 were about 10, 10, 1, 10, 5, 1, and 1 μM, respectively (detect by TopoGEN TG2005H, TG-2000H-1).

TOP I (Topoisomerase I) [2] = target: T2, TOP I (Topoisomerase I) (Homo sapiens, UniProt P11387); assay: TOP I mediated supercoiled DNA relaxation assay; format: biochemical; conditions: five different concentrations; TopoGEN TG2005H, TG-2000H-1
T2 construct: purchased TopoGEN TG2005H
T2 sequence (P11387 1-765): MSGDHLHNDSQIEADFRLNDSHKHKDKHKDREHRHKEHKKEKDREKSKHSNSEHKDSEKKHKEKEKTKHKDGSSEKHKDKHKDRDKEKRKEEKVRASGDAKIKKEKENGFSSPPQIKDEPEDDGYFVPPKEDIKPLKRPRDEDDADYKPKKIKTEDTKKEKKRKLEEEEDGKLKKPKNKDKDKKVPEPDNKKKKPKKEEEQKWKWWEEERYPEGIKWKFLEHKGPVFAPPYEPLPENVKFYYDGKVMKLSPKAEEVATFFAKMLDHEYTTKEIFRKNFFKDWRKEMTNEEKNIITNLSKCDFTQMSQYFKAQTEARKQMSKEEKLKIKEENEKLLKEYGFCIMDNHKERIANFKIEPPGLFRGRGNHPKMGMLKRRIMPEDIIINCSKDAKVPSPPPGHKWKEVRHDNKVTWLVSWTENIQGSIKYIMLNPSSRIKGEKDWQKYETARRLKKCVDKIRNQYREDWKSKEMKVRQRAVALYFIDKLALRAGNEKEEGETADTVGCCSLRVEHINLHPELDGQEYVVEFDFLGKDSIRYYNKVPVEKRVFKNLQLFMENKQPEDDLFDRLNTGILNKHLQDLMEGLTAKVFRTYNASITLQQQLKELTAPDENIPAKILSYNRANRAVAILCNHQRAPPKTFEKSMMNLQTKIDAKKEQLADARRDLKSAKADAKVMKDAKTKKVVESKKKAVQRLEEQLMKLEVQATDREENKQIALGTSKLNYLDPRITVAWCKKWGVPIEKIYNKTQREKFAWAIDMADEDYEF

TOP I (Topoisomerase I) [3] = target: T2, TOP I (Topoisomerase I); assay: TOP I mediated supercoiled DNA relaxation assay; format: biochemical; conditions: primary assay at 25 and/or 50 μM
Experimental: According to the cell cytotoxicity, compounds 5, 7, 8, 16, 19, N2, N7, N8, N9, N14-N19, and N25 were also selected for primary TOP I and II activities assays at 25 and/or 50 μM (FIG. 2-4).

SMILES	IC50 (PC-3 cell line) [µM]	IC50 (DU-145 cell line) [µM]	other results
O=c1c2cc(Cl)ccc2sc2c(NCCCO)nc3ccccc3c12 [Compound N10, 10-Chloro-6-(3-propanolamino)-12H-thiochromeno[2,3-c]quinolin-12-one]	6.31 ± 4.11	5.94 ± 2.03	
O=c1c2cc(Cl)ccc2sc2c(NCCCCCO)nc3ccccc3c12 [Compound N11, 10-Chloro-6-(5-pentanolamino)-12H-thiochromeno[2,3-c]quinolin-12-one]	8.38 ± 3.39	4.95 ± 0.58	
CCN(CC)CCCNc1nc2ccccc2c2c(=O)c3cc(Cl)ccc3sc12 [Compound N18, 10-Chloro-6-((3-(diethylamino)propyl)amino)-12H-thiochromeno[2,3-c]quinolin-12-one]			IC50 ([1]; five different concentrations, TopoGEN TG2005H, TG-2000H-1, read-out: IC50 value, TOP II mediated supercoiled DNA relaxation): ~1 µM; inhibitory effect in TOP II relaxation assay compared with VP-16 ([1]; primary assay at 25 and/or 50 μM): more potent inhibitory effects than the positive agent VP-16; IC50 (TOP I (Topoisomerase I) [2]): ~25 µM; melting point: 142 to 143 °C; inhibitory effect in TOP I activity assay compared with CPT (TOP I (Topoisomerase I) [3]): more potent inhibitory effects than CPT
Nc1ccc(CCNc2nc3ccccc3c3c(=O)c4cc(Cl)ccc4sc23)cc1 [Compound N32, 6-((4-Aminophenethyl)amino)-10-chloro-12H-thiochromeno[2,3c]quinolin-12-one]	10.1 ± 0.94	13.6 ± 1.39	
COc1cc([C@@H]2c3cc4c(cc3[C@@H](O[C@@H]3O[C@@H]5CO[C@@H](C)O[C@H]5[C@H](O)[C@H]3O)[C@H]3COC(=O)[C@H]23)OCO4)cc(OC)c1O [Etoposide (VP-16), Etoposide, reference compound]			IC50 (PC-3 cell line; Homo sapiens): 4.33 ± 0.86 µM
